The structures appear in SMILES notation. Values after ≈ are worked out from the molar mass of the structure shown.

Type in all cases: functional
Test [1] deals with Escherichia coli. Kind of test: Synergistic antibacterial activity against Escherichia coli assessed as reduction in mitomycin C MIC (reference value: […] to […] microg/ml).
The test system of test [2] is Pseudomonas aeruginosa. In words: Synergistic antibacterial activity against Pseudomonas aeruginosa assessed as reduction in mitomycin C MIC (reference value: […] to […] microg/ml).
A further test has as its system Enterobacter cloacae. In words: Synergistic antibacterial activity against Enterobacter cloacae assessed as reduction in mitomycin C MIC (reference value: […] to […] microg/ml).
In test [3] the test system is Pseudomonas aeruginosa. In words: Antibacterial activity against Pseudomonas aeruginosa PAO1.
Test [4] has as its system Klebsiella pneumoniae. Kind of test: Synergistic antibacterial activity against Klebsiella pneumoniae assessed as reduction in mitomycin C MIC (reference value: […] to […] microg/ml).
The subject of test [5] is Pseudomonas aeruginosa. Kind of test: Antibacterial activity against Pseudomonas aeruginosa PAO200.
Test [6] relates to Pseudomonas aeruginosa. In words: Antibacterial activity against Pseudomonas aeruginosa PAO750.
For test [7], the system named is Staphylococcus aureus. In words: Antibacterial activity against methicillin resistant Staphylococcus aureus 1.
In test [8] the test system is Staphylococcus aureus. In words: Potency index, ratio of vancomycin MIC to test compound MIC for antibacterial activity against Staphylococcus aureus.
In test [9] the test system is Staphylococcus aureus. Kind of test: Antibacterial activity against methicillin resistant Staphylococcus aureus 2.
For test [10], the system named is Staphylococcus aureus. In words: Potency index, ratio of gatifloxacin MIC to test compound MIC for antibacterial activity against methicillin susceptible Staphylococcus aureus.
Test [11] has as its system Streptococcus pneumoniae. In words: Potency index, ratio of vancomycin MIC to test compound MIC for antibacterial activity against methicillin susceptible Streptococcus pneumoniae.
Test [12] has as its system Streptococcus pneumoniae. In words: Antibacterial activity against Streptococcus pneumoniae.
In test [13] the test system is Staphylococcus aureus. Kind of test: Potency index, ratio of vancomycin MIC to test compound MIC for antibacterial activity against methicillin susceptible Staphylococcus aureus.
The subject of test [14] is Staphylococcus aureus. Kind of test: Antibacterial activity against methicillin susceptible Staphylococcus aureus.
The test system of test [15] is Staphylococcus aureus. Kind of test: Potency index, ratio of gatifloxacin MIC to test compound MIC for antibacterial activity against Staphylococcus aureus.
Test [16] relates to Staphylococcus aureus. In words: Antibacterial activity against Staphylococcus aureus.
Test [17] relates to Staphylococcus aureus. Kind of test: Antibacterial activity against methicillin resistant Staphylococcus aureus 3.
In test [18] the test system is Streptococcus pneumoniae. In words: Potency index, ratio of gatifloxacin MIC to test compound MIC for antibacterial activity against methicillin susceptible Streptococcus pneumoniae.
The test system of test [19] is Escherichia coli. In words: Antibacterial activity against Escherichia coli UTI89.
Test [20] has as its system Escherichia coli. In words: Antibacterial activity against Escherichia coli CFT073.
Test [21] concerns Staphylococcus aureus. Kind of test: Antibacterial activity against methicillin resistant Staphylococcus aureus.
Test [22] deals with Staphylococcus aureus. In words: Potency index, ratio of ciprofloxacin MIC to test compound MIC for antibacterial activity against methicillin resistant Staphylococcus aureus.
Test [23] deals with Staphylococcus aureus. In words: Potency index, ratio of ciprofloxacin MIC to test compound MIC for antibacterial activity against Staphylococcus aureus.
The subject of another test is Enterobacter. Kind of test: Antibacterial activity against Enterobacter.
In test [24] the test system is Pseudomonas aeruginosa. Kind of test: Antibacterial activity against Pseudomonas aeruginosa.
The next test relates to Chlamydia trachomatis. Kind of test: Antibacterial activity against Chlamydia trachomatis.
The test system of the next test is Enterococcus faecium. In words: Antibacterial activity against Enterococcus faecium.
Test [25] has as its system Klebsiella pneumoniae. In words: Antibacterial activity against Klebsiella pneumoniae.
Another test has as its system Acinetobacter baumannii. In words: Antibacterial activity against quinolone resistant Acinetobacter baumannii.
The test system of test [26] is Staphylococcus epidermidis. Kind of test: Potency index, ratio of ciprofloxacin MIC to test compound MIC for antibacterial activity against methicillin sensitive Staphylococcus epidermidis.
For test [27], the system named is Staphylococcus aureus. In words: Potency index, ratio of ciprofloxacin MIC to test compound MIC for antibacterial activity against methicillin sensitive Staphylococcus aureus.
In test [28] the test system is Escherichia coli. Kind of test: Antibacterial activity against Escherichia coli.
The test system of test [29] is Staphylococcus epidermidis. In words: Antibacterial activity against Staphylococcus epidermidis.

For `NC[C@H]1O[C@H](O[C@H]2[C@H](OCCCCN3CCN(c4cc5c(cc4F)c(=O)c(C(=O)O)cn5C4CC4)CC3)[C@@H](O[C@H]3O[C@H](CO)[C@@H](O)[C@H](N)[C@H]3O)[C@H](N)C[C@@H]2N)[C@H](N)C[C@@H]1O`, the MIC in the test on Escherichia coli [1] was 0.31 µg/mL; in the test on Pseudomonas aeruginosa [2], 0.31 µg/mL; in the test with Enterobacter cloacae, 0.31 µg/mL; with Pseudomonas aeruginosa [3], 32 µg/mL (≈ 37.5 µM); with Klebsiella pneumoniae [4], 0.31 µg/mL; against Pseudomonas aeruginosa [5] it was 4 µg/mL (≈ 4.69 µM). For the same compound, the minimum inhibitory concentration (MIC) with Pseudomonas aeruginosa [6] is 2 µg/mL (≈ 2.34 µM).
For `CO/N=C1/C(=O)N(Cc2cn(CC(=O)N3CCN(c4c(F)cc5c(=O)c(C(=O)O)cn(C6CC6)c5c4OC)CC3C)nn2)c2ccc(F)cc21` (configuration not stated), the MIC is not above 0.03 µg/mL with Staphylococcus aureus [7]; not above 0.03 µg/mL against Staphylococcus aureus [9]; 0.06 µg/mL (≈ 0.0869 µM) against Streptococcus pneumoniae [12]; 0.06 µg/mL (≈ 0.0869 µM) with Staphylococcus aureus [14]; 0.06 µg/mL (≈ 0.0869 µM) against Staphylococcus aureus [16]; not above 0.03 µg/mL against Staphylococcus aureus [17]. Further, the Ratio in the test on Staphylococcus aureus [8], in the test with Staphylococcus aureus [10], with Streptococcus pneumoniae [11], in the test with Staphylococcus aureus [13], in the test on Staphylococcus aureus [15] and in the test with Streptococcus pneumoniae [18] was 2 each time.
For `CC(=O)c1cn(C2CC2)c2cc(N3CCN(C(=O)CCCCCNC(=O)c4cc(O)c(O)c(C(=O)N[C@H]5COC(=O)[C@@H](NC(=O)c6cccc(O)c6O)COC(=O)[C@@H](NC(=O)c6cccc(O)c6O)COC5=O)c4)CC3)c(F)cc2c1=O`, the MIC in the test on Escherichia coli [19] and against Escherichia coli [20] was 0.1 µg/mL (≈ 0.0879 µM) each time.
In the case of `O=C(O)c1cn(C2CC2)c2cc(N3CCN(Cc4nc5ccccc5c(=O)[nH]4)CC3)c(F)cc2c1=O`, the MIC with Staphylococcus aureus [21] and against Staphylococcus aureus [16] was 0.016 µg/mL (≈ 0.0327 µM) in each case. Further, the Ratio in the test on Staphylococcus aureus [22] was 60; in the test on Staphylococcus aureus [23] it was 30.
Regarding `COc1c(N2CCN(C(=O)c3ccc4cccc(O)c4n3)CC2)c(F)cc2c(=O)c(C(=O)O)cn(C3CC3)c12`, the MIC against Enterobacter, in the test with Pseudomonas aeruginosa [24], with Chlamydia trachomatis, against Enterococcus faecium, against Klebsiella pneumoniae [25] and in the test on Staphylococcus aureus [16] was not above 0.06 µg/mL each time. Further, the MIC with Acinetobacter baumannii is not above 0.06 µg/mL. This compound returned a minimum bactericidal concentration (MBC) with Chlamydia trachomatis of 2 µg/mL (≈ 3.76 µM).
Regarding `O=C(CSC(=S)N1CCN(c2cc3c(cc2F)c(=O)c(C(=O)O)cn3C2CC2)CC1)Nc1ccccc1Cl`, the Ratio (in test [26]; in the test with Staphylococcus aureus [27]; with Staphylococcus aureus [23]) was 2 throughout. The MIC was found to be 0.097 µg/mL (≈ 0.169 µM) with Staphylococcus aureus [21]; 0.024 µg/mL (≈ 0.0417 µM) against Escherichia coli [28]; 0.024 µg/mL (≈ 0.0417 µM) against Pseudomonas aeruginosa [24]; 0.097 µg/mL (≈ 0.169 µM) in [29]; 0.097 µg/mL (≈ 0.169 µM) against Staphylococcus aureus [14]; 0.097 µg/mL (≈ 0.169 µM) against Staphylococcus aureus [16].

A word on the MIC: it is the smallest concentration in the dilution series that meets the test's criterion for growth inhibition. By MBC is commonly meant the smallest concentration meeting the test's criterion for killing.
